For 21 compounds, Ki results are on record in patent US9957263B2, “Bromodomain inhibitors” (AbbVie Inc., priority 2013, dated 2018).

One assay deals with BRD4 (BDI_K57-E168) (Homo sapiens (Human), UniProt O60885). Description: TR-FRET bromodomain binding assay, BRD4 first bromodomain. The following applies: His-tagged BD1, Alexa647-labeled probe 100 nM. How it is done: (§1) A time-resolved fluorescence resonance energy transfer (TR-FRET) assay was used to determine the affinities of compounds of the Examples listed in Table 1 for each bromodomain of BRD4. His-tagged first (BD1: amino acids K57-E168) and second (BD2: amino acids E352-E168) bromodomains of BRD4 were expressed and purified. An Alexa647-labeled BET-inhibitor was used as the fluorescent probe in the assay.
(§2) Compound dilution series were prepared in DMSO via a 3-fold serial dilution from 2.5 mM to 42 nM. Compounds were then diluted 6:100 in assay buffer (20 mM Sodium Phosphate, pH 6.0, 50 mM NaCl, 1 mM Ethylenediaminetetraacetic acid disodium salt dihydrate, 0.01% Triton X-100, 1 mM DL-Dithiothreitol) to yield 3× working solutions. Six microliters (μL) of the working solution was then transferred to white, low-volume assay plates (Costar #3673). A 1.5× assay mixture containing His-tagged bromodomain, Europium-conjugated anti-His antibody (Invitrogen PV5596) and the Alexa-647-conjugated probe molecule was also prepared. Twelve μL of this solution were added to the assay plate to reach a final volume of 18 μL. The final concentration of 1× assay buffer contains 2% DMSO, 50 μM-0.85 nM compound, 8 nM His-tagged bromodomain, 1 nM Europium-conjugated anti-His-tag antibody and 100 nM or 30 nM probe (for BDI or BDII, respectively). After a one-hour incubation at room temperature, TR-FRET ratios were determined using an Envision multilabel plate reader (Ex 340, Em […]).
(§3) TR-FRET data were normalized to the means of 24 no-compound controls (“high”) and 8 controls containing 1 μM un-labeled probe (“low”). Percent inhibition was plotted as a function of compound concentration and the data were fit with the 4 parameter logistic equation to obtain IC50s. Inhibition constants (Ki) were calculated from the IC50s, probe Kd and probe concentration. Typical Z′ values were between 0.65 and 0.75. The minimum significant ratio was determined to evaluate assay reproducibility (Eastwood et al., (2006) J Biomol Screen, 11: 253-261). The MSR was determined to be 2.03 for BDI and 1.93 for BDII, and a moving MSR (last six run MSR overtime) for both BDI and BDII was typically <3.

In a further assay the target is BRD4 (BDII_E352-M457) (Homo sapiens (Human), UniProt O60885). Description: TR-FRET bromodomain binding assay, BRD4 second bromodomain. The following applies: His-tagged BD2, Alexa647-labeled probe 30 nM. The method, then:
as §1, §2, §3

On to `Cn1cc(-c2cc(S(C)(=O)=O)ccc2Oc2cccc(NS(=O)(=O)c3ccc(F)cc3F)c2)c2cc[nH]c2c1=O` [Example 47, 2,4-difluoro-N-{3-[2-(6-methyl-7-oxo-6,7-dihydro-1H-pyrrolo[2,3-c]pyridin-4-yl)-4-(methylsulfonyl)phenoxy]phenyl}benzenesulfonamide], for which the Ki – broadly, the dissociation constant of the complex between target and ligand, obtained from inhibition or displacement – at BRD4 (BDI_K57-E168) was 5.9 nM; on BRD4 (BDII_E352-M457) it was 2.7 nM.
The corresponding values for `Cn1cc(-c2cc(S(C)(=O)=O)ccc2Oc2cccc(NS(=O)(=O)c3cccc(OC(F)F)c3)c2)c2cc[nH]c2c1=O` [Example 48, 3-(difluoromethoxy)-N-{3-[2-(6-methyl-7-oxo-6,7-dihydro-1H-pyrrolo[2,3-c]pyridin-4-yl)-4-(methylsulfonyl)phenoxy]phenyl}benzenesulfonamide] are 7.8 nM and 2.4 nM.
The corresponding values for `Cn1cc(-c2cc(S(C)(=O)=O)ccc2Oc2cccc(NS(=O)(=O)C3CC3)c2)c2cc[nH]c2c1=O` [Example 49, N-{3-[2-(6-methyl-7-oxo-6,7-dihydro-1H-pyrrolo[2,3-c]pyridin-4-yl)-4-(methylsulfonyl)phenoxy]phenyl}cyclopropanesulfonamide] are 4.4 nM and 1 nM.
`Cc1cccc(S(=O)(=O)Nc2cccc(Oc3ccc(S(C)(=O)=O)cc3-c3cn(C)c(=O)c4[nH]ccc34)c2)c1` [Example 50, 3-methyl-N-{3-[2-(6-methyl-7-oxo-6,7-dihydro-1H-pyrrolo[2,3-c]pyridin-4-yl)-4-(methylsulfonyl)phenoxy]phenyl}benzenesulfonamide]: the results for the Ki on BRD4 (BDI_K57-E168) and on BRD4 (BDII_E352-M457) were 3.4 nM and 1.2 nM, respectively.
For `Cn1cc(-c2cc(S(C)(=O)=O)ccc2Oc2cccc(NS(=O)(=O)c3cccc([N+](=O)[O-])c3)c2)c2cc[nH]c2c1=O` [Example 51, N-{3-[2-(6-methyl-7-oxo-6,7-dihydro-1H-pyrrolo[2,3-c]pyridin-4-yl)-4-(methylsulfonyl)phenoxy]phenyl}-3-nitrobenzenesulfonamide] the same measures were 5 nM and 3 nM.
The corresponding values for `Cc1cc(F)ccc1S(=O)(=O)Nc1cccc(Oc2ccc(S(C)(=O)=O)cc2-c2cn(C)c(=O)c3[nH]ccc23)c1` [Example 52, 4-fluoro-2-methyl-N-{3-[2-(6-methyl-7-oxo-6,7-dihydro-1H-pyrrolo[2,3-c]pyridin-4-yl)-4-(methylsulfonyl)phenoxy]phenyl}benzenesulfonamide] are 2 nM and 1.1 nM.
The corresponding values for `Cn1cc(-c2cc(S(C)(=O)=O)ccc2Oc2cccc(NS(=O)(=O)c3ccc(S(C)(=O)=O)cc3)c2)c2cc[nH]c2c1=O` [Example 54, N-{3-[2-(6-methyl-7-oxo-6,7-dihydro-1H-pyrrolo[2,3-c]pyridin-4-yl)-4-(methylsulfonyl)phenoxy]phenyl}-4-(methylsulfonyl)benzenesulfonamide] are 3.2 nM and 1.1 nM.
As for `Cn1cc(-c2cc(S(C)(=O)=O)ccc2Oc2cccc(NS(=O)(=O)c3ccccc3C#N)c2)c2cc[nH]c2c1=O` [Example 55, 2-cyano-N-{3-[2-(6-methyl-7-oxo-6,7-dihydro-1H-pyrrolo[2,3-c]pyridin-4-yl)-4-(methylsulfonyl)phenoxy]phenyl}benzenesulfonamide], the Ki is 6.9 nM on BRD4 (BDI_K57-E168) and 2.8 nM on BRD4 (BDII_E352-M457).
For `Cn1cc(-c2cc(S(C)(=O)=O)ccc2Oc2cccc(NS(=O)(=O)c3ccc(C#N)cc3)c2)c2cc[nH]c2c1=O` [Example 56, 4-cyano-N-{3-[2-(6-methyl-7-oxo-6,7-dihydro-1H-pyrrolo[2,3-c]pyridin-4-yl)-4-(methylsulfonyl)phenoxy]phenyl}benzenesulfonamide] the same measures were 8.8 nM and 3.4 nM.
For `Cn1cc(-c2cc(S(C)(=O)=O)ccc2Oc2cccc(NS(=O)(=O)c3cccc(C#N)c3)c2)c2cc[nH]c2c1=O` [Example 57, 3-cyano-N-{3-[2-(6-methyl-7-oxo-6,7-dihydro-1H-pyrrolo[2,3-c]pyridin-4-yl)-4-(methylsulfonyl)phenoxy]phenyl}benzenesulfonamide] the same measures were 5.3 nM and 2.2 nM.
With `Cn1cc(-c2cc(S(C)(=O)=O)ccc2Oc2cccc(NS(=O)(=O)c3ccc(F)cc3Cl)c2)c2cc[nH]c2c1=O` [Example 58, 2-chloro-4-fluoro-N-{3-[2-(6-methyl-7-oxo-6,7-dihydro-1H-pyrrolo[2,3-c]pyridin-4-yl)-4-(methylsulfonyl)phenoxy]phenyl}benzenesulfonamide], the values for the Ki on BRD4 (BDI_K57-E168) and at BRD4 (BDII_E352-M457) were 4.7 nM and 2.4 nM, respectively.
For `Cn1cc(-c2cc(S(C)(=O)=O)ccc2Oc2cccc(NCc3cccc(C#N)c3)c2)c2cc[nH]c2c1=O` [Example 60, 3-[({3-[2-(6-methyl-7-oxo-6,7-dihydro-1H-pyrrolo[2,3-c]pyridin-4-yl)-4-(methylsulfonyl)phenoxy]phenyl}amino)methyl]benzonitrile] the same measures were 7.9 nM and 2 nM.
The corresponding values for `Cn1cc(-c2cc(S(C)(=O)=O)ccc2Oc2cccc(NCc3ccc(C#N)cc3)c2)c2cc[nH]c2c1=O` [Example 61, 4-[({3-[2-(6-methyl-7-oxo-6,7-dihydro-1H-pyrrolo[2,3-c]pyridin-4-yl)-4-(methylsulfonyl)phenoxy]phenyl}amino)methyl]benzonitrile] are 3.7 nM and 1.3 nM.
For `Cn1cc(-c2cc(S(C)(=O)=O)ccc2Oc2cccc(NCc3ccc(F)cc3)c2)c2cc[nH]c2c1=O` [Example 62, 4-[2-{3-[(4-fluorobenzyl)amino]phenoxy}-5-(methylsulfonyl)phenyl]-6-methyl-1,6-dihydro-7H-pyrrolo[2,3-c]pyridin-7-one] the same measures were 3.1 nM and 1.4 nM.
Consider `CCS(=O)(=O)c1ccc(OCC2CC2(F)F)c(-c2cn(C)c(=O)c3[nH]c(C#CCN(C)C)cc23)c1` (stereo not drawn) [Example 63, 4-{2-[(2,2-difluorocyclopropyl)methoxy]-5-(ethylsulfonyl)phenyl}-2-[3-(dimethylamino)prop-1-yn-1-yl]-6-methyl-1,6-dihydro-7H-pyrrolo[2,3-c]pyridin-7-one], for which the figures for the Ki at BRD4 (BDI_K57-E168) and at BRD4 (BDII_E352-M457) were 1.3 nM and 3.3 nM, respectively.
The corresponding values for `COCCNc1cccc(Oc2ccc(S(C)(=O)=O)cc2-c2cn(C)c(=O)c3[nH]ccc23)c1` [Example 64, 4-[2-{3-[(2-methoxyethyl)amino]phenoxy}-5-(methylsulfonyl)phenyl]-6-methyl-1,6-dihydro-7H-pyrrolo[2,3-c]pyridin-7-one] are 5.2 nM and 3.4 nM.
For `Cn1cc(-c2cc(S(C)(=O)=O)ccc2Oc2cccc(NCC3CCCO3)c2)c2cc[nH]c2c1=O` (stereo not drawn) [Example 65, 6-methyl-4-[5-(methylsulfonyl)-2-{3-[(tetrahydrofuran-2-ylmethyl)amino]phenoxy}phenyl]-1,6-dihydro-7H-pyrrolo[2,3-c]pyridin-7-one] the same measures were 6.9 nM and 2.1 nM.
In the case of `COc1cccc(CNc2cccc(Oc3ccc(S(C)(=O)=O)cc3-c3cn(C)c(=O)c4[nH]ccc34)c2)c1` [Example 66, 4-[2-{3-[(3-methoxybenzyl)amino]phenoxy}-5-(methylsulfonyl)phenyl]-6-methyl-1,6-dihydro-7H-pyrrolo[2,3-c]pyridin-7-one], the Ki was determined as 3.8 nM at BRD4 (BDI_K57-E168) and 1.7 nM on BRD4 (BDII_E352-M457).
The corresponding values for `Cn1cc(-c2cc(S(C)(=O)=O)ccc2Oc2cccc(NCc3ccccc3F)c2)c2cc[nH]c2c1=O` [Example 67, 4-[2-{3-[(2-fluorobenzyl)amino]phenoxy}-5-(methylsulfonyl)phenyl]-6-methyl-1,6-dihydro-7H-pyrrolo[2,3-c]pyridin-7-one] are 4.3 nM and 2.8 nM.
On to `Cn1cc(-c2cc(S(C)(=O)=O)ccc2Oc2cccc(NCc3cccc(F)c3)c2)c2cc[nH]c2c1=O` [Example 68, 4-[2-{3-[(3-fluorobenzyl)amino]phenoxy}-5-(methylsulfonyl)phenyl]-6-methyl-1,6-dihydro-7H-pyrrolo[2,3-c]pyridin-7-one], for which the Ki on BRD4 (BDI_K57-E168) worked out at 10 nM; on BRD4 (BDII_E352-M457) it was 4.7 nM.
For `Cn1cc(-c2cc(S(C)(=O)=O)ccc2Oc2cccc(NCc3cccc(OC(F)(F)F)c3)c2)c2cc[nH]c2c1=O` [Example 69, 6-methyl-4-[5-(methylsulfonyl)-2-(3-{[3-(trifluoromethoxy)benzyl]amino}phenoxy)phenyl]-1,6-dihydro-7H-pyrrolo[2,3-c]pyridin-7-one] the same measures were 4.1 nM and 1.6 nM.
